According to article PMC10023664, “Hiat1 as a new transporter involved in ammonia regulation” (Scientific Reports, 2023):

System: Carcinus maenas Hiat1 (CmHiat1)
Conditions: 0.5-20 mM NH4Cl in OR2 bath; room temperature; net flux of whole oocyte, not sham-subtracted (endogenous NH4+ uptake present)

Km: 2300 µM
SMILES: N [NH4^+]
